Test results published in patent US20110142959A1, “METHODS, SYSTEMS AND COMPOSITIONS INVOLVED IN THE SYNTHESIS OF NONSTABLE COMPOUNDS” (priority 2009, published 2011).

Test: Degradation of ferrate (K2FeO4) in solution at various pH
Assay type: physicochemical
Procedure: FIG. 1 is a profile of the ferrate concentration starting at 0.1% (5 mM) at the native pH of K2FeO4, about 10.7. […] FIGS. 2 and 3 show the ferrate degrading faster at the higher pH's recommended by the Ciampi et al patent(s). Within about 21-46 minutes in the range of pH 11.2-11.8 the ferrate completely degraded. At this higher pH the Fe(OH)3 forms much faster and contributes to the acceleration in degradation.
FIG. 4 discloses a slightly lower pH of 10.4 which was buffered to approximately pH 9 with NaOH. Ferrate was detected in the solution for about four hours.

In the case of K2FeO4, the “time ferrate was detected in the solution” value (pH 10.4, buffered to approximately pH 9 with NaOH (FIG. 4)) is reported as “about four”, the “time within which the ferrate completely degraded” value (pH 11.2-11.8 (FIGS. 2 and 3)) is reported as 21 to 46 min and the “time ferrate was present in the solution” value (starting at 0.1% (5 mM), native pH of K2FeO4 about 10.7 (FIG. 1)) is reported as “about 220 minutes”.
